{"source": "patent US20150335662A1", "about": "“METHODS FOR DIAGNOSING AND TREATING SEPSIS” (priority 2013, published 2015)", "system": "Cecum Ligation-Puncture (CLP) induced sepsis", "assay": "Cecum Ligation-Puncture (CLP) induced sepsis in rats, daily calcitriol dosing, survival and body weight", "type": "in vivo, adult Wistar rats", "settings": "CLP septic rats", "protocol": "Then, the optimal dosing of calcitriol as an example of an agent for treatment of sepsis according to the present invention was determined. Anesthesia was induced in adult Wistar rats with 5% isoflurane followed by maintenance on 2.5% isoflurane. The cecum was exteriorized via a small abdominal incision, and was then ligated approximately 3.5 […] distal to the cecum tip. The ligated cecum was punctured twice with a 26-gauge needle and was gently squeezed to extrude some stool. The cecum was replaced in the abdomen and the incision closed with 4-0 silk sutures in two layers, abdominal wall and skin. This Cecum Ligation-Puncture (CLP) procedure induced sepsis in the animals. Sham-operated rats were treated identically, except that the cecum was neither ligated nor punctured.\nThe rats then received either standard therapy (normal saline (30 ml/kg body weight) given once immediately after the CLP procedure to compensate the third-space fluid loss and imipenem (25 mg/kg body weight) daily subcutaneously) or therapy according to the present invention (calcitriol at 25 ng, 100 ng or 400 ng in peanut oil subcutaneously daily). The rats were monitored daily for body weight and survival.\nReferring now to FIG. 9 and FIG. 10, there are shown, respectively, a graph of percent survival as a function of time after induction of sepsis in rats showing the effect of various doses of calcitriol (none, triangles; 25 ng daily, line; 100 ng daily, circles; and 400 ng daily, squares) (FIG. 9); and a graph of body weight in grams as a function of time after induction of sepsis in rats showing the effect of various doses of calcitriol (none, triangles; 25 ng daily, line; 100 ng daily, circles; and 400 ng daily, squares) (FIG. 10)."}
{"smiles": "C=C1C(=CC=C2CCC[C@]3(C)[C@@H]2CC[C@@H]3[C@H](C)CCCC(C)(C)O)C[C@@H](O)C[C@@H]1O", "note": "[calcitriol, (1R,3S)-5-[2-[(1R,3aR,7aS)-1-[(2R)-6-hydroxy-6-methyl-heptan-2-yl]-7a-methyl-2,3,3a,5,6,7-hexahydro-1H-inden-4-ylidene]ethylidene]-4-methylidene-cyclohexane-1,3-diol]", "values": [{"measurement": "signs of hypercalcemia", "setting": "400 ng daily subcutaneously", "result": "typical signs of hypercalcemia"}, {"measurement": "effect on survival", "setting": "400 ng daily subcutaneously, FIG. 9", "result": "negatively affected"}, {"measurement": "effect on body weight", "setting": "400 ng daily subcutaneously, FIG. 10", "result": "negatively affected"}, {"measurement": "optimal dose for survival", "setting": "calcitriol 25, 100 or 400 ng in peanut oil subcutaneously daily, FIG. 9", "result": 100, "unit": "ng daily"}, {"measurement": "optimal dose for body weight", "setting": "calcitriol 25, 100 or 400 ng in peanut oil subcutaneously daily, FIG. 10", "result": 100, "unit": "ng daily"}]}
